Experimental data: US9144539B2, “Methioninase inhibitor and composition and food or drink containing the same” (Lotte Co., Ltd., priority 2006, dated 2015)

Target: T1, methioninase (Fusobacterium nucleatum subsp. nucleatum, UniProt Q8RDT4)
T1 construct: disrupted by sonication to obtain the enzyme; endogenous in cells; host or cells: Fusobacterium nucleatum JCM 8532, sonicated cell lysate (unpurified)
T1 sequence (Q8RDT4 1-395): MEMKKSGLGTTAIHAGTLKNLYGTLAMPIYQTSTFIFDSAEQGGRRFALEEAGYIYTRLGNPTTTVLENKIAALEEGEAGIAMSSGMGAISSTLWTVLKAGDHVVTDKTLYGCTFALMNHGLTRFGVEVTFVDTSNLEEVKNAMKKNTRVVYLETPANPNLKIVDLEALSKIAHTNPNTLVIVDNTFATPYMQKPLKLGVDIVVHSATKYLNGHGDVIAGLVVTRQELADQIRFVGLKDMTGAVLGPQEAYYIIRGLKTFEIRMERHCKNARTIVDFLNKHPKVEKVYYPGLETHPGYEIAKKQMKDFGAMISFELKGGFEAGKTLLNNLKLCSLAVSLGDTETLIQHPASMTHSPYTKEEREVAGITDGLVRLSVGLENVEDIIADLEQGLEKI
Assay: Cell-free methioninase inhibition test (α-ketobutyrate production from methionine)
Assay type: biochemical
Settings: cell-free enzyme from sonicated bacteria; read-out: IC50 against methioninase (converted)

Compound | IC50 [µM]
CC(C)=CCC/C(C)=C/Cc1cc(C(=O)O)cc(CC=C(C)C)c1O [Myrsinoic acid A, myrsinoic acid A] | 14.6
CC(C)=CCCC(C)(O)C1Cc2cc(C(=O)O)cc(CC=C(C)C)c2O1 (stereo not drawn) [Myrsinoic acid B, myrsinoic acid B] | 11.2
CC(C)=CCC[C@]1(C)Oc2c(CC=C(C)C)cc(C(=O)O)cc2C[C@@H]1O [Myrsinoic acid C, myrsinoic acid C] | 13.9
CC(C)=CCC/C(C)=C/Cc1cc(C(=O)O)cc(C/C=C(\C)CCC=C(C)C)c1O [Myrsinoic acid E (Synthesized), Myrsinoic acid E] | 12.2
CC(C)=CCC/C(C)=C/Cc1cc(C(=O)O)cc(C/C=C(\C)CCC=C(C)C)c1O [Myrsinoic acid E, myrsinoic acid E] | 12.2
CC(C)=CC/C=C(\C)C1Cc2cc(C(=O)O)cc(CC=C(C)C)c2O1 (stereo not drawn) [Myrsinoic acid F, myrsinoic acid F] | 8.81
